From patent publication US10105395B2, “Microvesicles (MVs) derived from adult stem cells for use in the therapeutic treatment of a tumor disease” (Fresenius Medical Care Deutschland GmbH, priority 2010, dated 2018)

How the values were obtained:
Type in all cases: cell-based, human
HepG2 cells = assay: TUNEL apoptotic assay, MVs from MSCs; settings: 24 and 48 hours, compared to vehicle alone; doxorubicin 100 ng/ml
Protocol: (§1) HepG2, MCF-7, SKOV-3, KS cells, HUVECs or TECs were seeded at 8,000 cells/well into 96-well plated in DMEM (Sigma) with 10% FCS and in the presence of doxorubicin (100 ng/ml, Sigma) or different concentrations of MVs (10 and 30 μg/ml) pre-treated or not with RNase. Apoptosis was assessed by TUNEL assay (ApopTag Oncor, Gaithersburg, Md., USA). After 24 or 48 hours of treatment, the cells were washed with PBS, fixed in 1% paraformaldehyde pH 7.4 for 15 minutes at 4° C., washed twice in PBS and then post-fixed in pre-cooled ethanol-acetic acid 2:1 for 5 minutes at −20° C. The samples were treated with the enzyme terminal deoxynucleotidyl transferase (TdT). The cells were then treated with heated anti-digoxigenin conjugate with fluorescein and incubated for 30 minutes at room temperature. The samples were mounted in medium containing 1 μg/ml of propidium iodide and the cells analyzed by immunofluorescence. The results are expressed as the percentage of green fluorescence emitting cells (apoptotic cells) versus red fluorescence emitting cells (total cells).

[1] = system: KS cells (Kaposi's sarcoma cells); assay: TUNEL apoptotic assay, MVs from MSCs; settings: 24 and 48 hours, compared to vehicle alone; doxorubicin 100 ng/ml
Protocol: as §1

HepG2 hepatoma cell line = assay: TUNEL apoptosis assay, MVs from HLSCs; settings: MVs 30 μg/ml; vincristine 100 ng/ml; 24 hours
Protocol: Apoptosis was evaluated using the terminal dUTP nickend labeling assay (ApoTag; Oncor, Gaithersburg, Md.). Cells ([…]) were cultured in 96-well plate, suspended in phosphate-buffered saline (PBS) and fixed in 1% paraformaldehyde in PBS, pH 7.4, for 15 minutes at 4° C. followed by pre-cooled ethanol/acetic acid (2:1) for 5 minutes at −20° C. Cells were treated with terminal deoxynucleotide transferase enzyme and incubated in a humidified chamber for 1 hour at 37° C. and then treated with warmed fluorescein isothiocyanate-conjugated antidigoxigenin for 30 minutes at room temperature. After washing, samples were mounted in a medium containing […] of propidium iodide and the cells were analyzed by immunofluorescence.
The ability of HLSC-derived MVs to induce apoptosis on HepG2 was evaluated. Briefly, HepG2 were seeded at a density of 8,000 cells/well into 96-well plates in DMEM with 10% FCS and apoptosis was induced by culture in the absence of FCS, by treatment with vincristine (100 ng/ml), or doxorubicin (50 ng/ml), two mitotic inhibitors used in cancer chemotherapy, or by MV treatment (30 μg/ml). […] Apoptosis was evaluated using the TUNEL assay analysis at […].

Row | Compound | apoptosis of HepG2 cells (Tunel assay) (HepG2 cells) | apoptosis of KS cells (Tunel assay) [1] | HepG2 apoptosis (TUNEL assay) (HepG2 hepatoma cell line)
1 | COc1cccc2c1C(=O)c1c(O)c3c(c(O)c1C2=O)C[C@@](O)(C(=O)CO)C[C@@H]3O[C@H]1C[C@H](N)[C@H](O)[C@H](C)O1 [doxorubicin] | apoptosis induced by doxorubicin | apoptosis induced by doxorubicin | 
2 | CC[C@]1(O)C[C@H]2CN(CCc3c([nH]c4ccccc34)[C@@](C(=O)OC)(c3cc4c(cc3OC)N(C=O)[C@H]3[C@@](O)(C(=O)OC)[C@H](OC(C)=O)[C@]5(CC)C=CCN6CC[C@]43[C@@H]65)C2)C1 [vincristine] |  |  | induced by vincristine
